According to patent US20250092383A1, “COMPOUNDS AND METHODS FOR FBXO22-MEDIATED PROTEIN DEGRADATION” (Northwestern University, priority 2023, published 2025):

How the values were obtained:
FKBP12-EGFP = biological target: T1, FKBP12-EGFP (Homo sapiens, UniProt P62942); assay: E3 ligase focused CRISPR-Cas9 transcriptional activation screen for FKBP12-EGFP degradation; type: cell-based; details: 2 μM 22-SLF, 24 hours, HEK293T CRISPR-Cas9 transcriptional activation cells
T1 construct: expressed in transfected cells
T1 sequence (P62942 whole entry): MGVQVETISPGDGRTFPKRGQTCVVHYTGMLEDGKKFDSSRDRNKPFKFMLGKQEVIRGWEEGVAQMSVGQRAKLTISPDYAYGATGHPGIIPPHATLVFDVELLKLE
Description: FIGS. 1A-1E show an E3 ligase focused CRISPR-Cas9 transcriptional activation screen identifies FBXO22 that supports 22-SLF-induced reduction in FKBP12-EGFP expression levels. FIG. 1A is a schematic representation of the steps in the CRISPR-Cas9 transcriptional activation screen. […] FIG. 1C is a volcano plot showing the E3 ligase focused CRISPR-Cas9 transcriptional activation screen for FKBP12-EGFP degradation after treatment of 2 μM 22-SLF in HEK293T CRISPR-Cas9 transcriptional activation cells for 24 hours. […] The statistical significance was evaluated through unpaired two-tailed Student's t-tests, comparing cells transduced with FBXO22 sgRNA to control sgRNA. Statistical significance denoted ****P<0.0001. […] The statistical significance was evaluated through unpaired two-tailed Student's t-tests, comparing cells treated with 22-SLF to DMSO. Statistical significance denoted as ***P<0.001 and ns: not significant.
With the CRISPR-Cas9 transcriptional activation cells, a CRISPR-Cas9 transcriptional activation pool screen was developed to identify E3 ligases that support FKBP12 degradation by FKBP12-directed heterobifunctional compounds. […] Subsequently, cells from the bottom 15% of the GFP population were isolated using fluorescence-activated cell sorting (FIG. 1a and FIG. 7). […]

FKBP12 (mouse FBXO22) [1] = biological target: T2, FKBP12 (mouse FBXO22) (UniProt P62942+Q78JE5); assay: FKBP12 degradation in HEK293T cells expressing mouse FBXO22; type: cell-based; details: HEK293T cells expressing mouse FBXO22 wildtype
T2 construct: expressed in transfected cells; host or cells: HEK293T
T2 sequence (P62942 2-108): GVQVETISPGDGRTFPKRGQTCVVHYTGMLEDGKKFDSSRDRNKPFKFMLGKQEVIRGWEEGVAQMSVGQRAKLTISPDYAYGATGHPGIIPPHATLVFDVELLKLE
T2 sequence (Q78JE5 whole entry): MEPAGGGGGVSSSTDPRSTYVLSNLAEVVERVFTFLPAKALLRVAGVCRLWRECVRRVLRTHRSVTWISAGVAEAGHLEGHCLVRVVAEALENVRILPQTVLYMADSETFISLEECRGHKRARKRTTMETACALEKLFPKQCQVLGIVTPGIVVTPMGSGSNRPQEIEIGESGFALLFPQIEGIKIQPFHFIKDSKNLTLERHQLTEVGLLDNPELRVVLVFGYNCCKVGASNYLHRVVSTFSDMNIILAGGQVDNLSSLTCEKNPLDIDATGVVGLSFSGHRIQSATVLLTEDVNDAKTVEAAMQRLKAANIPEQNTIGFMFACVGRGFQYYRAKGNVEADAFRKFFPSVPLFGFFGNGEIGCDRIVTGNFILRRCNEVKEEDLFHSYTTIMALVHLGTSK
T2 sequence (P63208 whole entry partner): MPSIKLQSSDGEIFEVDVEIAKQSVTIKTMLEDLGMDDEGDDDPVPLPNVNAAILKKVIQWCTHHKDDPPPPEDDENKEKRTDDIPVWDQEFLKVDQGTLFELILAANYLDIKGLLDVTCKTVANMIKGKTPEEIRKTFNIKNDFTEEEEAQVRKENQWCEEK
Description: (§1) FIGS. 3A-3H show FBXO22 C227 and C228 are involved in 22-SLF-mediated degradation of FKBP12. […] Among 5,650 quantified IA-DTB-modified peptides, four cysteines were identified on FBXO22 (C83, C117, C228, and C365). […] Data are presented as the mean values (n=2 biological independent samples for DMSO treatment; n=3 biological independent samples for 22-SLF Treatment). […] The bag graph represents quantification of the FLAG-FKBP12/HSP90 protein content. Data are presented as mean values (n=2 biological independent samples). […] The bar graph represents quantification of the FLAG-FKBP12/HSP90 protein content. Data are presented as the mean values (n=2 biological independent samples).
(§2) Intriguingly, the peptide sequence containing the two consecutive cysteines (C227 and C228) is identical between human and mouse (FIG. 3f). To explore whether mouse FBXO22 can facilitate 22-SLF-induced FKBP12 degradation and if the conserved cysteines (C226 and C227 in mouse FBXO22) are pivotal, HEK293T cells expressing mouse FBXO22 wildtype, C226A, C227A, and C226AC227A, were generated.

FKBP12 (mouse FBXO22) [2] = biological target: T3, FKBP12 (mouse FBXO22) (UniProt P62942+Q78JE5, C226A/C227A); assay: as above; type: cell-based; details: HEK293T cells
T3 construct: expressed in transfected cells; host or cells: HEK293T
T3 sequence (P62942 2-108): as the sequence (P62942 2-108) above
T3 sequence (Q78JE5 whole entry C226A/C227A): as the sequence (Q78JE5 whole entry) above, with C226A, C227A counted along it
Description: as §1, §2

FKBP12 (mouse FBXO22) [3] = assay: as above; type: cell-based; details: HEK293T cells
Description: as §1, §2

FKBP12 and FBXO22 [4] = biological target: T4, FKBP12 and FBXO22 (Homo sapiens, UniProt P62942+Q8NEZ5); assay: Coimmunoprecipitation of HA-FBXO22 with FLAG-FKBP12 (ternary complex); type: cell-based; details: HEK293T cells, with MG132
T4 construct: expressed in transfected cells; host or cells: HEK293T
T4 sequence (P62942 2-108): as the sequence (P62942 2-108) above
T4 sequence (Q8NEZ5 whole entry): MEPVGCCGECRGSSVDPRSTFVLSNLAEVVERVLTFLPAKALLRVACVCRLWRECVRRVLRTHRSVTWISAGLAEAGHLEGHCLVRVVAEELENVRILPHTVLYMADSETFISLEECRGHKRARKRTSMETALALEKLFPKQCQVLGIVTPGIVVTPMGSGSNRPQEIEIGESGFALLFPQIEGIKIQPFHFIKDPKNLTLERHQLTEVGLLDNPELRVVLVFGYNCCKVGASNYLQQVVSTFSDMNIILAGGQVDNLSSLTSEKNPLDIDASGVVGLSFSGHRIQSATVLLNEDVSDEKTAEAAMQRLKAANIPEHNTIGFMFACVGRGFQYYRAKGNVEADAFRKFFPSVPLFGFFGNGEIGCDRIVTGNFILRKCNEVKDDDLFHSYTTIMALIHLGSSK
T4 sequence (P63208 whole entry partner): as the sequence (P63208 whole entry partner) above
Description: (§3) FIGS. 4A-4C show 22-SLF induces the formation of a ternary complex involving 22-SLF, FKBP12 and FBXO22. […] The bar graph represents quantification of the immunoprecipitated HA-FBXO22 protein content compared to the HA-FBXO22 protein in whole cell lysates (WCL). Data are presented as the mean values (n=2 biological independent samples). […] Data are presented as the mean values (n=2 biological independent samples).
(§4) The formation of ternary complex by degraders with their target protein and E3 ligase drives the subsequent target degradation.

FKBP12 and FBXO22 [5] = biological target: T5, FKBP12 and FBXO22 (Homo sapiens, UniProt P62942+Q8NEZ5, C227A/C228A); assay: as above; type: cell-based; details: HEK293T cells, with MG132
T5 construct: expressed in transfected cells; host or cells: HEK293T
T5 sequence (P62942 2-108): as the sequence (P62942 2-108) above
T5 sequence (Q8NEZ5 whole entry C227A/C228A): as the sequence (Q8NEZ5 whole entry) above, with C227A, C228A counted along it
T5 sequence (P63208 whole entry partner): as the sequence (P63208 whole entry partner) above
Description: as §3, §4

FKBP12 and FBXO22 [6] = assay: as above; type: cell-based, human; details: HEK293T cells, with MG132
Description: as §3, §4

Compound: CCC(C)(C)C(=O)C(=O)N1CCCC[C@H]1C(=O)O[C@H](CCc1ccc(OC)c(OC)c1)c1cccc(OCC(=O)NCCCOCCOCCOCCCN(C(=O)CCl)C(C(=O)NCc2ccccc2)c2nc3ccccc3s2)c1 (stereo partly shown) [22-SLF]
- Enrichment of sgRNAs in sorted low-GFP cells (FKBP12-EGFP): substantial enrichment of two distinct sgRNAs targeting the same E3 ligase, FBXO22
- FKBP12 degradation, mouse FBXO22 wildtype (FKBP12 (mouse FBXO22) [1]): induced FBKP12 degradation
- FKBP12 degradation, mouse FBXO22 double mutant C226AC227A (FKBP12 (mouse FBXO22) [2]): fully blocked the degradation
- FKBP12 degradation, mouse FBXO22 single mutants C226A and C227A (FKBP12 (mouse FBXO22) [3]): partially impeded degradation
- Ternary complex formation, FBXO22 wild type (FKBP12 and FBXO22 [4]): HA-FBXO22 co-immunoprecipitated with FLAG-FKBP12
- Ternary complex assembly, FBXO22 C227AC228A double mutant (FKBP12 and FBXO22 [5]): nearly completely abolished
- Ternary complex assembly, FBXO22 C227A or C228A single mutant (FKBP12 and FBXO22 [6]): partially hindered
